# Experimental data: patent publication US6348477B1, “Anti-herpesvirus compounds and methods for identifying, making and using same” (Boehringer Ingelheim(Canada) Ltd., priority 1995, dated 2002)
# pEC50, pIC50: −log10 of the molar value.
# Tests used:
# HSV-1 helicase-primase = molecular target: T1, HSV-1 helicase-primase (Human herpesvirus 1, UniProt P10189+P10236); assay: HSV-1 DNA-dependent ATPase assay (inhibition of HSV-1 helicase-primase); format: biochemical; conditions: Group 1 Table 1
# T1 construct: made in house; host or cells: Sf21 insect cells triply infected with recombinant baculoviruses
# Procedure, shortened: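 HSV-1 helicase-primase holoenzyme (UL5/UL8/UL52, expressed in baculovirus-infected Sf21 cells, purified; 3 μg/mL) with 4 mM ATP and 25 μM primed single-stranded M13 DNA in HEPES pH 7.5, 5.5 mM MgCl2, 3.3% DMSO, 20 min at 34°. Released phosphate is read with malachite green at 650 nm, and activity is taken from the net absorbance change.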
# HCMV (strain AD169) [1] = assay: Inhibition of HCMV replication, ELISA assay (Hs-68 cells, p28); format: cell-based, human cytomegalovirus; conditions: Human betaherpesvirus 5, AD169, Hs68; Group 1 Table 1; read-out: ELISA CMV EC50
# Procedure, shortened: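 Hs-68 cells infected with HCMV AD169 at MOI 0.01 PFU/cell (2 h adsorption), washed, then incubated with compound for 8 days at 37° in DMEM/5% FBS. Late protein p28 detected in fixed cells by mAb UL99 ELISA (HRP/OPD, 450 nm). EC50 from % inhibition of replication.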
# HCMV (strain AD169) [2] = assay: Inhibition of HCMV replication, plaque reduction assay (PRA, Hs-68 cells); format: cell-based, human cytomegalovirus; conditions: Human betaherpesvirus 5, AD169, Hs68; Group 1 Table 1; read-out: PRA CMV EC50
# Procedure, shortened: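 Hs-68 cells infected with about 50 PFU HCMV AD169 (2 h adsorption, 37°), then incubated with compound in 5% inactivated-FBS medium for 4 days, refed with fresh compound, 4 more days. Crystal violet-stained plaques counted; EC50 from percent plaque reduction versus untreated.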
# T1 sequence (P10189 whole entry): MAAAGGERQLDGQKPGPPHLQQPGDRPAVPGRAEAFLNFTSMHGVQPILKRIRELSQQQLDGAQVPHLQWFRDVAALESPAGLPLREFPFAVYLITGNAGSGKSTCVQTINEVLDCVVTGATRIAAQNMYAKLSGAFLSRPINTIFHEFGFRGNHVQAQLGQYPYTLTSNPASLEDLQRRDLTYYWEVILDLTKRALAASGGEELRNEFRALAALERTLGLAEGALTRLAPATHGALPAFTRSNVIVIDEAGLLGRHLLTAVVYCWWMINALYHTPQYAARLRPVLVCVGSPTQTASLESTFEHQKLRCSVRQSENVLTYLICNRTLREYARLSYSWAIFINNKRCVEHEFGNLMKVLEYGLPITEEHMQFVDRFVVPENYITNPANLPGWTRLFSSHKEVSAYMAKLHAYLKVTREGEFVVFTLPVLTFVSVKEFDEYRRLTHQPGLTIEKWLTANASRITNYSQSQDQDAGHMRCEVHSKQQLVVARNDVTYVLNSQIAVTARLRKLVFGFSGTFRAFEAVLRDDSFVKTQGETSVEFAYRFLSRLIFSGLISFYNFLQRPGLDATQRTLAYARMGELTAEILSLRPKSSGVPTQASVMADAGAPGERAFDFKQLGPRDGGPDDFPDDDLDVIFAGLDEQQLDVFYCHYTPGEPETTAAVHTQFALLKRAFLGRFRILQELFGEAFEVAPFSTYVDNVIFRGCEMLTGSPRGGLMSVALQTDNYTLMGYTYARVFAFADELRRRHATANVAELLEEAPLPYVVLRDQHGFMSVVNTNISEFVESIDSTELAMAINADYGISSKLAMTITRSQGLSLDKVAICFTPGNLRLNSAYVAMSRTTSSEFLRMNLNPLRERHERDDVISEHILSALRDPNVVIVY
# T1 sequence (P10192 whole entry, further chain): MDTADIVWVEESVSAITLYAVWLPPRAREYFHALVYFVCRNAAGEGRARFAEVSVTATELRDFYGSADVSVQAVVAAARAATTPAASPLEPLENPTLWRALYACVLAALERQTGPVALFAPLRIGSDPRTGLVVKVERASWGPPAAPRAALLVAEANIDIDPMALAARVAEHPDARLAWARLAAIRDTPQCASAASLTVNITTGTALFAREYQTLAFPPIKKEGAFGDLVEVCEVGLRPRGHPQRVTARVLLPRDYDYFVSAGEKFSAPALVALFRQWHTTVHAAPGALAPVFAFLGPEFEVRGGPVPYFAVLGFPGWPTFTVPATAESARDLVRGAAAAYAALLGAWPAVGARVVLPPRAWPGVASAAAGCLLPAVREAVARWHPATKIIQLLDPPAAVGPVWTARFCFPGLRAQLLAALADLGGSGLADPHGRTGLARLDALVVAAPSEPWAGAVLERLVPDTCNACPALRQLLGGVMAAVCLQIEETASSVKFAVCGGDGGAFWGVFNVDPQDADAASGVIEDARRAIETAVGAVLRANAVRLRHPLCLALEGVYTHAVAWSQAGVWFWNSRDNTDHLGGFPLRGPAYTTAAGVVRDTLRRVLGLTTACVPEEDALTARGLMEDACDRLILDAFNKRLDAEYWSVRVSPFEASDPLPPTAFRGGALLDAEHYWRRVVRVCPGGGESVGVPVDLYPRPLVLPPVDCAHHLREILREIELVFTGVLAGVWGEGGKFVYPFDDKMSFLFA
# T1 sequence (P10236 whole entry): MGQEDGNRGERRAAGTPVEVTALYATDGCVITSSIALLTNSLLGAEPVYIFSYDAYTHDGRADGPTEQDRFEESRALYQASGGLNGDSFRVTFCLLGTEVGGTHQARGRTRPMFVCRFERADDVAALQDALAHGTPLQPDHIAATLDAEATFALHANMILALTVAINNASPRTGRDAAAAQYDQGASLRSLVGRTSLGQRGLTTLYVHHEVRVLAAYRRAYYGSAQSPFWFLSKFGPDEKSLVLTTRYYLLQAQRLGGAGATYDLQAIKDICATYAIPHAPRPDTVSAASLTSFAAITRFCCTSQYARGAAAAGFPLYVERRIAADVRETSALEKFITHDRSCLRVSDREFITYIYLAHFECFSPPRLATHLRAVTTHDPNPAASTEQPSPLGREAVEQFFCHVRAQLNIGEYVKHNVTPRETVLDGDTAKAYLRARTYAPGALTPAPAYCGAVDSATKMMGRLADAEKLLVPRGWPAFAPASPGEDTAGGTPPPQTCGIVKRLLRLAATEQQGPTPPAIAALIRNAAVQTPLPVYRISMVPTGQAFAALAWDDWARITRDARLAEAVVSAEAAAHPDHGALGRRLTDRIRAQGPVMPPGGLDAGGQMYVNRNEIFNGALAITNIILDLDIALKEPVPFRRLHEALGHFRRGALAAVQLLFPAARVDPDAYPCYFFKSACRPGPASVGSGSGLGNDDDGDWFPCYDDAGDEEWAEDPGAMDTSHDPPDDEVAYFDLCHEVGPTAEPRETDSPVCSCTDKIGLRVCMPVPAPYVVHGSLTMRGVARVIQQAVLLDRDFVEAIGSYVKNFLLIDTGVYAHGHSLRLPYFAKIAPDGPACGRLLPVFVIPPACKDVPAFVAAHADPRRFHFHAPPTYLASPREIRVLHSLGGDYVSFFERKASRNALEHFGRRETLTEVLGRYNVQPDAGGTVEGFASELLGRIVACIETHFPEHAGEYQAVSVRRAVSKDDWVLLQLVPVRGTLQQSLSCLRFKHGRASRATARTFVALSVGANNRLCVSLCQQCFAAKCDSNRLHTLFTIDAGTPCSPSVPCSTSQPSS
smiles,measurement,setting,value
Nc1nc(-c2ccc(NC(=O)CN(CCc3ccccc3)C(=O)c3cccnc3)cc2)cs1 [Example 67],pIC50,HSV-1 helicase-primase,6.46
same,pEC50,HCMV (strain AD169) [1],5.68
same,pEC50,HCMV (strain AD169) [2],4.03
